Measurements taken from PubChem BioAssay AID330 (DTP/NCI, 2004).
Where “and” joins values, the source holds several entries; their conditions need not be identical. Equal entries are not always repeated. Toxic doses and inconclusive results are not listed. The calls were made as follows: active = survival T/C of 150% or more; inactive = T/C below 125% in these data.

Test system: P388 leukemia ip, CD2F1 mice, survival T/C
Assay: NCI In Vivo Anticancer Drug Screen. Data for tumor model P388 Leukemia (intraperitoneal) in CD2F1 (CDF1) mice
Settings: endpoint: median survival time, higher = longer survival
In short: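 Mice carrying the transplanted tumor received test compound or vehicle. Survival was recorded in each group, and the value is the treated-group measurement divided by that of the vehicle-treated control group.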

[1] = dose: 25.0 mg/kg/injection, schedule: Q01DX009 (ip), vehicle: saline with Tween-80
[2] = dose: 6.25 mg/kg/injection, schedule: Q01DX009 (ip), vehicle: saline
[3] = dose: 12.5 mg/kg/injection, schedule: Q01DX009 (ip), vehicle: saline
[4] = dose: 50.0 mg/kg/injection, schedule: Q01DX009 (ip), vehicle: saline with Tween-80
[5] = dose: 100.0 mg/kg/injection, schedule: Q01DX009 (ip), vehicle: saline with Tween-80
[6] = dose: 200.0 mg/kg/injection, schedule: Q01DX009 (ip), vehicle: saline with Tween-80
[7] = dose: 60.0 mg/kg/injection, schedule: Q01DX005 (ip), vehicle: Klucel (hydroxypropylcellulose) (HPC)
[8] = dose: 120.0 mg/kg/injection, schedule: Q01DX005 (ip), vehicle: Klucel (hydroxypropylcellulose) (HPC)
[9] = dose: 50.0 mg/kg/injection, schedule: Q01DX009 (ip), vehicle: saline
[10] = dose: 100.0 mg/kg/injection, schedule: Q01DX009 (ip), vehicle: saline
[11] = dose: 200.0 mg/kg/injection, schedule: Q01DX009 (ip), vehicle: saline
[12] = dose: 60.0 mg/kg/injection, schedule: Q01DX005 (ip), vehicle: saline
[13] = dose: 120.0 mg/kg/injection, schedule: Q01DX005 (ip), vehicle: saline
[14] = dose: 240.0 mg/kg/injection, schedule: Q01DX005 (ip), vehicle: saline
[15] = dose: 60.0 mg/kg/injection, schedule: Q01DX005 (ip), vehicle: saline with Tween-80
[16] = dose: 240.0 mg/kg/injection, schedule: Q01DX005 (ip), vehicle: saline with Tween-80
[17] = dose: 12.5 mg/kg/injection, schedule: Q01DX005 (ip), vehicle: saline with Tween-80
[18] = dose: 25.0 mg/kg/injection, schedule: Q01DX005 (ip), vehicle: saline with Tween-80
[19] = dose: 50.0 mg/kg/injection, schedule: Q01DX005 (ip), vehicle: saline with Tween-80

Measured: T/C

COc1cccc2c1C(=O)c1c(O)c3c(c(O)c1C2=O)CC(O)(C(=O)CBr)CC3OC(C)=O (stereo unspecified)
inactive: dose: 1.56 mg/kg/injection, schedule: Q01DX009 (ip), vehicle: other 109 % of control | dose: 3.13 mg/kg/injection, schedule: Q01DX009 (ip), vehicle: other 103 % of control | dose: 6.25 mg/kg/injection, schedule: Q01DX009 (ip), vehicle: other 105 % of control | dose: 12.5 mg/kg/injection, schedule: Q01DX009 (ip), vehicle: other 113 % of control | dose: 25.0 mg/kg/injection, schedule: Q01DX009 (ip), vehicle: other 109 % of control

O=C1c2ccccc2C(=O)N1CC[P+](c1ccccc1)(c1ccccc1)c1ccccc1
inactive: dose: 0.78 mg/kg/injection, schedule: Q01DX009 (ip), vehicle: water 87 % of control | dose: 1.56 mg/kg/injection, schedule: Q01DX009 (ip), vehicle: water 112 % of control and 103 % of control and 115 % of control | dose: 3.13 mg/kg/injection, schedule: Q01DX009 (ip), vehicle: saline with Tween-80 121 % of control | dose: 3.13 mg/kg/injection, schedule: Q01DX009 (ip), vehicle: water 123 % of control and 118 % of control and 120 % of control | dose: 6.25 mg/kg/injection, schedule: Q01DX009 (ip), vehicle: saline with Tween-80 88 % of control | dose: 12.5 mg/kg/injection, schedule: Q01DX009 (ip), vehicle: water 123 % of control and 105 % of control | dose: 18.8 mg/kg/injection, schedule: Q01DX009 (ip), vehicle: water 93 % of control | [1] 123 % of control | dose: 25.0 mg/kg/injection, schedule: Q01DX009 (ip), vehicle: water 98 % of control

CC(C)(C)C1(C(C)(C)C)CO1
inactive: [2] 98 % of control | [3] 96 % of control

COc1ccc(NC(=S)Nc2ccc(S(=O)(=O)N3CCCCC3)cc2)cc1
inactive: dose: 50.0 mg/kg/injection, schedule: Q01DX009 (ip), vehicle: Klucel (hydroxypropylcellulose) (HPC) 94 % of control | dose: 100.0 mg/kg/injection, schedule: Q01DX009 (ip), vehicle: Klucel (hydroxypropylcellulose) (HPC) 94 % of control and 95 % of control | dose: 200.0 mg/kg/injection, schedule: Q01DX009 (ip), vehicle: Klucel (hydroxypropylcellulose) (HPC) 98 % of control

N#C/C(=C\c1cccs1)C(=O)c1ccco1
inactive: [4] 101 % of control | [5] 100 % of control | [6] 95 % of control

Cn1c2ccccc2c2oc(CO)cc(=O)c21
inactive: [7] 95 % of control | [8] 89 % of control | dose: 240.0 mg/kg/injection, schedule: Q01DX005 (ip), vehicle: Klucel (hydroxypropylcellulose) (HPC) 91 % of control

O=C1OC(CCCl)CN1Cc1ccccc1 (stereo unspecified)
inactive: [9] 103 % of control | [10] 103 % of control | [11] 98 % of control

COC(=O)C(Cc1ccccc1C(N)=O)(OC)OC
inactive: dose: 50.0 mg/kg/injection, schedule: Q01DX005 (ip), vehicle: saline 98 % of control | dose: 100.0 mg/kg/injection, schedule: Q01DX005 (ip), vehicle: saline 99 % of control | dose: 200.0 mg/kg/injection, schedule: Q01DX005 (ip), vehicle: saline 98 % of control

O=[N+]([O-])c1c(Sc2ccccc2)ncnc1Sc1ccccc1
inactive: dose: 12.5 mg/kg/injection, schedule: Q01DX009 (ip), vehicle: saline with Tween-80 100 % of control | [1] 100 % of control | [4] 91 % of control | [9] 95 % of control

N#CC(C#N)=C(O)/C(=C/c1ccc([N+](=O)[O-])cc1)NC(=O)c1ccccc1
inactive: [12] 95 % of control | [13] 100 % of control | [14] 95 % of control

COC(=O)C1(C#N)CC1
inactive: [12] 113 % of control | [13] 96 % of control | [14] 103 % of control

CC(=O)Nc1cccc(OCc2cccc(N3C(N)=NC(N)=NC3(C)C)c2)c1
inactive: dose: 1.56 mg/kg/injection, schedule: Q01DX009 (ip), vehicle: distilled water + Tween-80 99 % of control | dose: 3.12 mg/kg/injection, schedule: Q01DX009 (ip), vehicle: distilled water + Tween-80 99 % of control | dose: 6.25 mg/kg/injection, schedule: Q01DX009 (ip), vehicle: distilled water + Tween-80 105 % of control | [2] 105 % of control | dose: 12.5 mg/kg/injection, schedule: Q01DX009 (ip), vehicle: distilled water + Tween-80 105 % of control | [3] 101 % of control | dose: 25.0 mg/kg/injection, schedule: Q01DX009 (ip), vehicle: saline 117 % of control

CCOC(=O)c1cnc2cc3c(cc2c1Nc1ccccc1C(=O)OC)OCO3
inactive: dose: 50.0 mg/kg/injection, schedule: Q04DX002 (ip), vehicle: Klucel (hydroxypropylcellulose) (HPC) 101 % of control | dose: 100.0 mg/kg/injection, schedule: Q04DX002 (ip), vehicle: Klucel (hydroxypropylcellulose) (HPC) 101 % of control | dose: 200.0 mg/kg/injection, schedule: Q04DX002 (ip), vehicle: Klucel (hydroxypropylcellulose) (HPC) 97 % of control

Cc1noc(NS(=O)(=O)c2ccc(NCc3c4ccccc4nc4cc(Cl)ccc34)cc2)c1C
inactive: [15] 100 % of control | dose: 120.0 mg/kg/injection, schedule: Q01DX005 (ip), vehicle: saline with Tween-80 97 % of control | [16] 103 % of control

NC1(N2SC(S)=C3CCCC=C32)CCCCC1
inactive: [4] 97 % of control | [5] 100 % of control | [6] 105 % of control

c1ccc(N2OCC3c4ccccc4-c4ccccc4C32)cc1 (stereo unspecified)
inactive: dose: 50.0 mg/kg/injection, schedule: Q04DX002 (ip), vehicle: suspension in saline 100 % of control | dose: 100.0 mg/kg/injection, schedule: Q04DX002 (ip), vehicle: suspension in saline 104 % of control | dose: 200.0 mg/kg/injection, schedule: Q04DX002 (ip), vehicle: suspension in saline 97 % of control

COC(=O)C1=NC(=O)C(C#N)=C(C(=O)OC)C1(C(=O)c1ccc(OC)cc1)c1ccc(OC)cc1 (stereo unspecified)
inactive: [7] 95 % of control | [8] 91 % of control

CC(=O)OCCS(=O)Cc1ccccc1 (stereo unspecified)
inactive: [12] 92 % of control | [13] 94 % of control | [14] 100 % of control

CC1=C(C)C(=O)c2cc3c(-c4ccccc4)oc(-c4ccccc4)c3cc2C1=O
inactive: [17] 93 % of control | [18] 95 % of control | [19] 86 % of control and 96 % of control

O=C(Cc1nc2ccccc2nc1CC(=O)c1ccncc1)c1ccncc1
inactive: dose: 6.25 mg/kg/injection, schedule: Q01DX005 (ip), vehicle: saline with Tween-80 102 % of control | [17] 90 % of control | [15] 93 % of control | [16] 98 % of control

COC(=O)c1[nH]cnc1O
inactive: dose: 50.0 mg/kg/injection, schedule: Q01DX005 (ip), vehicle: water 103 % of control | dose: 100.0 mg/kg/injection, schedule: Q01DX005 (ip), vehicle: water 113 % of control | dose: 200.0 mg/kg/injection, schedule: Q01DX005 (ip), vehicle: water 103 % of control

COc1cc2c(cc1OC)C(=O)Cc1ccc(OC)c(O)c1CN(C)CC2
inactive: dose: 2.25 mg/kg/injection, schedule: Q01DX009 (ip), vehicle: Klucel (hydroxypropylcellulose) (HPC) 111 % of control | dose: 4.5 mg/kg/injection, schedule: Q01DX009 (ip), vehicle: Klucel (hydroxypropylcellulose) (HPC) 108 % of control | dose: 9.0 mg/kg/injection, schedule: Q01DX009 (ip), vehicle: Klucel (hydroxypropylcellulose) (HPC) 118 % of control | dose: 18.0 mg/kg/injection, schedule: Q01DX009 (ip), vehicle: Klucel (hydroxypropylcellulose) (HPC) 108 % of control

CC(CN(C)C)C(=O)C(=Cc1ccccc1)C(=O)C(C)CN(C)C (stereo unspecified)
inactive: [12] 100 % of control | [13] 108 % of control | [14] 102 % of control

CC1(C)N=C(N)N=C(N)N1c1ccc(S(C)(=O)=O)cc1
inactive: [17] 103 % of control | [18] 101 % of control | [19] 100 % of control and 106 % of control

CNCCOC(=O)/C=C1/CCC2C(C(O)CC3C(C)(C(=O)OC)CCCC23C)C1C (stereo unspecified)
inactive: dose: 1.5 mg/kg/injection, schedule: Q01DX009 (ip), vehicle: saline 110 % of control | dose: 3.0 mg/kg/injection, schedule: Q01DX009 (ip), vehicle: saline 102 % of control | dose: 6.0 mg/kg/injection, schedule: Q01DX009 (ip), vehicle: saline 106 % of control

CN(C(=S=O)c1ccc([N+](=O)[O-])cc1)c1ccccc1
inactive: [9] 100 % of control | [10] 97 % of control | [11] 104 % of control
